Series [1] is described as follows: PAMPA blood-brain barrier permeability. It counts as in vitro ADME. To be noted: PAMPA-BBB, pH 7.4; read-out: BBB Pe. The method, then: One mg of each compound was solubilized in ethanol (1 mL) in a 5 mL flask, and an additional 500 μL ethanol and 3.5 mL PBS buffer (pH 7.4) were added to this solution. […] 180 μL of a PBS (pH 7.4)/ethanol (70:30) solution were then added to the wells of a 96-well receiver plate, and 5 μL of a porcine brain lipid solution (20 mg/mL in dodecane) to the wells of a 96-well donor plate. […] Afterward, the donor plate was removed, and the content of the receiver plate was transferred to a UV reading plate, which was read using a microplate reader (SpectraMax 5 – Molecular Devices). A reference sample for the internal correction of the microplate reader was prepared using 180 μL of the PBS (pH 7.4)/ethanol (70:30) solution (adapted from ref ). The optical density values obtained from the content of the receiver plate were compared with the ones obtained from readings performed with the initial solutions containing each compound, before their addition to the donor plate. […] The optical density values for the experimental controls were used to determine the equation of the linear regression (optical density vs P e ), which allowed the determination of the P e value of each compound from the optical density values obtained from the receiver plate, using an in-house Microsoft Excel spreadsheet.

A short description of series [2]: Metabolic stability in mouse liver microsomes. It is filed as in vitro ADME. To be noted: pH 7.4, MLM, with NADPH cofactor; for microsomal CLint at 5 μM: read-out: Clint, intrinsic clearance; for half-life at 5 μM: read-out: t1/2, microsomal half-life. The procedure:
To a microcentrifuge tube was added 1 mg/mL Mouse Liver Microsome (MLM), a NADPH generating system consisting of 1 mM NADP+, 1.5 mM MgCl2, 3.5 mM glucose-6-phosphate and 0.5 U/mL glucose-6-phosphate dehydrogenase, and phosphate buffer (pH 7.4) in a sufficient amount for a total volume of […]. After a 15 min preincubation at 37 °C in a water bath, the enzymatic reactions were started by adding 2 μL of a […] stock solution of each compound to be assessed, reaching a final concentration of 5 μM in the tested compound. , The samples were further incubated at 37 °C under stirring (30 rpm) for predetermined periods (0, 15, 30, 45, and 60 min), and 500 μL chilled MeOH and 500 μL chilled acetonitrile were added before the samples were homogenized and left standing in an ice bath to accelerate protein precipitation. The resulting mixture was centrifugated at 13000 rpm for 15 min at 4 °C, the organic layer was extracted and 2 μL internal standard (clonazepam 5 μM) was added. Finally, the samples were filtered through a PVDF filter (Millex 0.22 μm x 13 mm) and analyzed by HPLC-PDA. ,

The nature of series [3]: Hepatotoxicity in HepG2 cells (MTS). It counts as cell-based. To be noted: human, read-out: CC50 against HepG2 cells. The procedure: HepG2 cells were seeded at 2 × 10^4 cells/mL in DMEM, the plates were incubated for 24 h (5% CO2, 37 °C) and the compounds and doxorubicin (used as a positive control) were added in serial dilutions. After 72 h incubation, 15 μL of MTS reagent (CellTiter96) was added to each well, and the plates were incubated for 4 h then read using a microplate absorbance reader at 490 nm. Growth inhibition was expressed as a percentage of the absorbance of the negative control wells.

For series [4], the system named is L. infantum promastigotes. Description: Antileishmanial activity against promastigotes (MTS). It counts as cell-based. The following applies: Leishmania infantum, 72 h. The procedure:
L. infantum promastigotes (MHOM/MA/67/ITMAP-263) were cultured in complete Schneider medium (SigmaAldrich, St. Louis, MO, USA), which consisted of Schneider medium plus 10% heat-inactivated fetal bovine serum (FBS, SigmaAldrich) pH 7.4, at 24 °C. The L. infantum promastigotes were plated at a concentration of 10^5 parasites/mL, and 2 was added at concentrations of 64, 32, 16, 8, 4, 2, 1, 0.5, 0.25, and 0.125 μM. The cells were cultured for 72 h and, after the incubation time, cell proliferation was measured by colorimetric MTS assay. The cells in each well were stained with 20 μL of MTS (Promega, G3580) for 3 h, and the OD at 490 nm was determined with a microplate reader. All experiments were independently repeated at least three times.

The next series concerns L. infantum GSK-3B. Description: GSK-3B enzyme inhibition (LANCE TR-FRET). It counts as biochemical. To be noted: concentrations up to 30 μM, 10 nM enzyme. The method, then: The following controls were included: protein in 1% DMSO (100% activity), 10 μM AZD-5438 (0% activity), and buffer without enzyme (blank).
To detect the progress of the enzymatic reaction, a commercially available TR-FRET-based assay (LANCE TR-FRET, PerkinElmer) was used. In the enzymatic step, purified protein kinase and the peptide substrate were incubated with compounds 1 – 6 for 30 min at 25 °C before the addition of ATP to start the reaction, which was run at 30 °C (2 h for GSK-3A or 1 h 15 min for GSK-3B). […]. […]
The fluorescence signal was measured using a CLARIOstar microplate reader (BMG LABTECH) set with an excitation wavelength of 320 nm and an emission wavelength of 665 nm. MARS software (BMG LABTECH) was used to analyze the data obtained after reading each plate. The background fluorescence signal (blank) was subtracted from the fluorescence signal obtained for each reaction, in order to reflect the specific signal of enzymatic activity. The data was then analyzed with the GraphPad Prism v10 software, using the equation “log(inhibitor) vs response - variable slope (four parameters) - Y = Bottom + (Top-Bottom)/(1 + 10̂((LogIC50-X)* HillSlope))” to obtain dose–response curves and determine IC50 values. […]
A general note: Time-resolved FRET reads energy transfer from a long-lived donor to a nearby acceptor.

For a further series, the system named is L. braziliensis DHODH. Nature of the series: DHODH inhibition assay (DCIP). It counts as biochemical, Leishmania braziliensis. The following applies: 100 μM. The method, then:
The inhibition assay was conducted under the following conditions: 50 mM Tris (pH 8.15), 150 mM KCl, 50 μM DHO, 60 μM DCIP, and 0.1% Triton X-100. 2 was assayed in triplicate at a concentration of 100 μM, using 5% (v/v) DMSO to prepare stock solutions. The reaction was initiated by adding the enzyme, reaching a final enzyme concentration of 165 nM. Enzymatic activity was then measured for 60 s at 610 nm using a microplate reader (SpectraMax Plus 384, Molecular Devices, San Jose, CA, USA) at 25 °C. The uninhibited reaction, containing 5% (v/v) DMSO, was used as a positive control (100% activity).

The next series relates to THP-1 cells. Also noted: method as in SAR previously reported. The following applies: ref SAR previously reported; cited from earlier work.

Structures are written as SMILES. Where only a bound is given, the exact number is not on record here.

The CC50 is the concentration that lowers cell viability or growth by half. Usually IC50 stands for the concentration that inhibits the measured activity by half. Low values mean higher potency, high ones lower potency. On to `O=C(c1ccc(O)cc1)N1CCN(c2cnccn2)CC1` [Compound 2, (4-Hydroxyphenyl)(4-(pyrazin-2-yl)piperazin-1-yl)methanone], for which the Papp at 0.2 mg/mL in series [1] stood at 0.55 ×10⁻⁶ cm/s. In series [2], the microsomal CLint at 5 μM turned out to be 0.55 µL/min/mg and the half-life at 5 μM was 5.25 h. Further, the CC50 at 72 h in series [3] was above 64 µM. In series [4], this compound showed a 50% inhibitory concentration (IC50) of 7.93 µM. In the series with L. infantum GSK-3B, the “inhibition of L. infantum GSK-3B” value was “no inhibitory effect”. The “inhibition of DHODH” value with L. braziliensis DHODH is recorded as “less than 25%”.
Consider `O=C(c1ccc(O)c(Cl)c1)N1CCN(c2cnccn2)CC1` [Compound 1, (3-Chloro-4-hydroxyphenyl)(4-(pyrazin-2-yl)piperazin-1-yl)methanone], for which the Papp at 0.2 mg/mL in series [1] is 0.52 ×10⁻⁶ cm/s. Moreover, in series [2], the microsomal CLint at 5 μM was 1.23 µL/min/mg and the half-life at 5 μM is 2.36 h. Further, the “inhibition of L. infantum GSK-3B” value in the series on L. infantum GSK-3B is on record as “did not exert any inhibition”. In the series with THP-1 cells, the cytotoxic concentration (CC50) was 542 µM.

The record behind these values is paper PMC12384620, “Hit-to-Lead Studies of Pyrazinylpiperazines against Visceral Leishmaniasis: Pharmacokinetic Profile and In Vivo Efficacy of Potent Compounds against Leishmania infantum” (ACS Pharmacology & Translational Science, 2025).
